Earlier results in patent US20110257090A1, “SOLUTIONS FOR VOLUME THERAPY” (FRESENIUS KABI DEUTSCHLAND GMBH, priority 2008, published 2011).

Test system: cultured mammalian cells
Details: long-term studies

O=S(=O)(O)CCN(CCO)CCO [BES, N,N-bis(2-hydroxyethyl)-2-aminoethanesulfonic acid]
toxicity to cultured mammalian cells: non-toxic
